{
  "source": "patent US9974856B2",
  "about": "“Method of treating androgen deficiency in women” (Parapharm Ltd., priority 2009, dated 2018)",
  "system": "human subject with diagnosed osteopenia",
  "assay": "Mineral bone density (forearm scanner DXT-200) and serum calcium in a subject with osteopenia",
  "format": "in vivo",
  "details": "after a one-month break in the administration, following six-month course of 1 g 3 times a day",
  "description": "A human subject. The mineral bone density of T−1.4 was measured in the distal antibrachium by means of the forearm scanner DXT-200 available from Osteometer MediTech, Inc. Osteopenia was diagnosed and 1 g of calcium gluconate was administered 3 times a day. A six-month course of preventive medication was conducted. […] That is, the mineral bone density (MBD) became less. […] For reference: MBD normal value—the values of T criterion with a standard deviation of +1 to −1 from the peak bone mass; • 1st degree osteopenia—MBD of −1 to −1.5; • 2nd degree osteopenia—MBD of −1.5 to −2; • 3rd degree osteopenia—MBD of −2 to −2.5; • 1st degree osteoporosis—MBD of −2.5 and less without fractures; • 2nd degree osteoporosis—MBD of −2.5 and less with osteoporotic bone fractures. The densitometric T scale presents the number of standard deviations up and down an average bone mass value. The T criterion decreases in parallel with a gradual reduction in the bone mass with age and is used to evaluate the MBD in adults.\nThe same human subject with diagnosed osteopenia and the mineral bone density of T −1.6 was administered one capsule of the claimed biologically active food additive 3 times a day A six-month preventive medication course was conducted following the pattern of one-month administration/one-month break. The mineral bone density increased to T −1.2. The serum calcium value normalized. […]",
  "data": [
    {"substance": "calcium gluconate", "values": [
      {"measurement": "serum calcium value", "value": "below the normal value"}
    ]}
  ]
}
